Results on 1 molecule are retold here after article PMC11111691, “Cystine-knot peptide inhibitors of HTRA1 bind to a cryptic pocket within the active site region” (Nature Communications, 2024).

Positions of bridges follow the written chain, without caps; N, C: chain ends. Residues, ends and D or L forms follow the SMILES beside them.

The target in one data set is T1, HTRA1^PD(SA) (Homo sapiens, UniProt Q92743, S328A).
T1 construct: The protease domains of human HTRA1 (HTRA1^PD; D161-K379); made in house; host or cells: E. coli
T1 sequence (Q92743 161-379 S328A): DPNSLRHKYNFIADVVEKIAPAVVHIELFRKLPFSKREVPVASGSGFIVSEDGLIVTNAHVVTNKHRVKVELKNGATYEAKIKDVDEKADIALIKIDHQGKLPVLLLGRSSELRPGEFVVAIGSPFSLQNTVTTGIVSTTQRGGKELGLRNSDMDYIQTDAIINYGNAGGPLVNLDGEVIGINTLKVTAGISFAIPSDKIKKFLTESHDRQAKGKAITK
Description: SPR binding kinetics to HTRA1^PD(SA). Particulars: mean ± S.D. of three or more independent experiments. The method, then:
Surface plasmon resonance (SPR) experiments were performed using a Biacore S200 instrument at 25 °C. His-tagged HTRA proteins were captured on a CM5 sensor chip using the His-capture kit (GE Healthcare). Protein concentrations used for immobilization were as follows; HTRA1^PD(SA), HTRA1^PD and HTRA1^PD-ABP 2 µg/ml with 60-s injections at 10 µl/min, HTRA2^PD/PDZ, HTRA3^PD/PDZ, and HTRA4^PD/PDZ 4 µg/ml with 60-s injections at 10 µl/min. Approximate immobilization levels of HTRA proteins were as follows; HTRA1^PD(SA) 700 RU, HTRA1^PD 900 RU, HTRA1^PD-ABP 900 RU, HTRA2^PD/PDZ 500 RU, HTRA3^PD/PDZ 500 RU, HTRA4^PD/PDZ 500 RU. All CKPs were prepared in HBS-EP buffer (0.01 M HEPES pH 7.4, 0.15 M NaCl, 3 mM EDTA, 0.005% v/v Surfactant P20). All CKP concentrations were injected for 120 s at a flow rate of 30 μl/min. A reference channel was subtracted from the HTRA-captured channel.
Binding kinetics of peptides to HTRA1^PD(SA) were determined by flowing six serial three-fold dilutions of peptide over the HTRA1^PD(SA) immobilized surface using a single cycle kinetics model. CKP maximum concentrations were as follows: 1A7, 1A8, 1C10, 2D5, and 3A7, 300 nM; 1G10-ENI and 1D3-ENI, 100 nM; 3B3, 3000 nM; and CPI, 10,000 nM. Data were analyzed using GE BIA evaluation software using a 1:1 Langmuir binding model. The KD values, calculated from the determined kon and koff values, were the mean ± S.D. of 3–4 independent experiments.
(In general: Surface plasmon resonance follows binding to a sensor surface in real time, without labels.)

The next data set concerns C32 melanoma cells. Description: Cell toxicity assay (CellTiter-Glo), C32. The class given is cell-based, human. The conditions noted are these: 0.6-50 µM CKP, 24 h and 72 h, at least three independent experiments. The method, then: reduction at the highest CKP concentration of 50 µM after 72 h (see results below). The absence of cell toxicity is likely due to the inability of the CKPs to penetrate cell membranes, which was experimentally determined in response to another reviewer. Due to space limitations we have not […]
Protocol of cell toxicity assay (Figure above):
HeLa cells or C32 melanoma cells were passaged in DMEM media supplemented with 10% FBS, 1% pen-strep and 1x Glutamax using standard culture conditions (5% CO2, 90% humidity at 37°C). At approximately 95% confluence cells were trypsinized, seeded onto 96-well plates (Corning) at 10,000 cells/well and grown for 24 h. Cells were then incubated with the CKPs 3B3, 1D3-ENI and 1G10-ENI (0, 0.6, 1.9, 5.6, 16.7 and 50 µM) at 37°C for 24 h or for 72h. As a positive control we used staurosporine (STS; 1µM). Cell viability was measured using the CellTiter-Glo luminescent cell viability assay (Promega) on an Envision Multilabel plate reader. Average of at least three independent experiments ± S.D. were plotted in Prism 10. Two-way ANOVA was performed on each dataset and compared to no drug samples and no significant viability reductions were observed, except for some treatments at the […]
A general note: In ATP-based viability assays light output follows the ATP content of the culture.

The subject of the next data set is MDCK monolayer. Kind of data set: MDCK trans-well cell permeability assay. The class given is in vitro ADME, canine. Particulars: MDCK trans-well, apical to basolateral, up to 50 µM, 16 h, mass spectrometry.
Where [1] appears, read: SPR Biacore S200, 25 °C, single cycle kinetics, 1:1 Langmuir model.

Description for MDCK monolayer: We carried out a cell permeability study using a MDCK trans-well assay, which is commonly
used at Genentech for permeability screening of compounds . This assay measures the flux of test
compound (Papp, apparent permeability) across a MDCK monolayer from the apical to the
basolateral compartment over a 16 h period.
sensitive mass spectrometry method .
10x10-6 cm/s and compounds with Papp values of <1x10-6 cm/s are considered to be of low
Protocol of permeability assay:
Experiments were carried out as described (Chen et al. Evaluating the utility of canine Mdr1 knockout
Madin-Darby canine kidney I cells in permeability screening and efflux substrate determination, Mol
Cells were seeded in 96-well Corning Transwell plates (PET membrane, 1 µm pore size) at 75,000 cells
per well and grown in DMEM media supplemented with 10% FBS, 1% pen-strep and 1x Glutamax at
37C, 5% CO2 for 48 h to ensure monolayer formation. Stock solutions of the three CKPs 1B3, 1D3-ENI
and 1G10-ENI were diluted in Hank's Balanced Salt solution containing 25 mM HEPES, pH 7.4 and 25
µM of the monolayer integrity marker lucifer yellow. CKPs at a concentration of 50 µM were added to
the apical (donor) chamber and the CKP the apparent permeability (Papp) was determined by quantifying
the amount of CKP in the basolateral (receiver) chamber after 16 h incubation at 37C, 5% CO2. The
samples from the basolateral chamber were supplemented with the experiment analytical internal standard
(100 nM propranolol in 50% ACN:50% water with 0.1% formic acid) and then injected in a Sciex Zeno
TOF 7600 mass spectrometer using TOF/MS mode.

In general, Kd refers to the equilibrium constant for the complex coming apart. Consider `CC[C@H](C)[C@H](NC(=O)[C@@H]1CCCN1C(=O)[C@H](CC(=O)O)NC(=O)[C@H](C)NC(=O)[C@@H](N)Cc1c[nH]cn1)C(=O)N[C@H]1CSSC[C@@H]2NC(=O)[C@H](Cc3ccccc3)NC(=O)[C@H](Cc3c[nH]c4ccccc34)NC(=O)[C@H](C)NC(=O)CNC(=O)[C@H](CO)NC(=O)[C@@H]3CSSC[C@@H](C(=O)NCC(=O)N4CCC[C@H]4C(=O)N[C@@H](Cc4ccc(O)cc4)C(=O)N[C@H](C(=O)NCC(N)=O)C(C)C)NC(=O)[C@H](CO)NC(=O)[C@H](Cc4c[nH]c5ccccc45)NC(=O)[C@H]([C@@H](C)O)NC(=O)[C@H](C)NC(=O)[C@H](Cc4ccc(O)cc4)NC(=O)[C@H](Cc4ccc(O)cc4)NC(=O)[C@H](CSSC[C@H](NC(=O)[C@@H]4CCCN4C(=O)[C@H](CCCCN)NC(=O)[C@H](CC(N)=O)NC1=O)C(=O)N[C@@H](CCCCN)C(=O)N[C@@H]([C@@H](C)O)C(=O)N[C@@H](Cc1c[nH]cn1)C(=O)N[C@@H](CC(=O)O)C(=O)N[C@@H](CC(=O)O)C(=O)N3)NC(=O)[C@H](C)NC(=O)[C@H](CCC(N)=O)NC2=O` [3B3] (H-HADPICNKPCKTHDDCSGAWFCQACYYATWSCGPYVG-NH2; disulfide 6-22, 10-25, 16-32), for which, on HTRA1^PD(SA) (setting [1]), the koff is reported as 3.8 ± 0.5 s-1 x10-4 and the kon is listed as 1.1 ± 0.2 M-1 s-1 x104. On HTRA1^PD(SA) (SPR, calculated from kon and koff, CPI up to 10 µM), the Kd was 34 nM. For the same molecule, the “Cell viability, C32 melanoma cells” value in the data set on C32 melanoma cells is recorded as “did not appreciably affect cell viability”. Moreover, the “Cell permeability in the MDCK cell assay” value in the data set on MDCK monolayer was “no detectable cell permeability”.
